Measurements as given in ChEMBL document CHEMBL1201862, “PubChem BioAssay data set” (2004).
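Where inhibition never reached the appropriate level, the endpoint shown equals the highest concentration tested. Otherwise, values were interpolated linearly from a five-concentration, 48-hour dose response in 96-well plates. Abbreviation: GI50, concentration required for 50% inhibition of growth.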 The source made the active and inactive calls. Cut-off read from the data, not from the text of the source: active = GI50 up to about 1.1 µM and inactive = higher.

Assays:
Test in all cases: NCI anticancer screen, dose series, 48 h
TK-10 = system: TK-10
RXF 393 = system: RXF 393
OVCAR-5 = system: OVCAR-5
DMS-114 = system: DMS-114
MOLT-4 = system: MOLT-4
SW-620 = system: SW-620
U-251 = system: U-251
COLO 205 = system: COLO 205
EKVX = system: EKVX
CCRF-CEM = system: CCRF-CEM
HCT-116 = system: HCT-116
M19-MEL = system: M19-MEL
OVCAR-3 = system: OVCAR-3
UACC-257 = system: UACC-257
SNB-19 = system: SNB-19
SK-MEL-5 = system: SK-MEL-5
HOP-62 = system: HOP-62
A498 = system: A498
DLD-1 = system: DLD-1
HL-60 = system: HL-60
IGROV-1 = system: IGROV-1
A549 = system: A549
RXF 631 = system: RXF 631
OVCAR-4 = system: OVCAR-4
HT-29 = system: HT-29
Malme-3M = system: Malme-3M
LOX IMVI = system: LOX IMVI
KM-20L2 = system: KM-20L2
LXFL 529 = system: LXFL 529
HCC 2998 = system: HCC 2998
SK-OV-3 = system: SK-OV-3
NCI-H522 = system: NCI-H522
HOP-18 = system: HOP-18
M14 = system: M14
CAKI-1 = system: CAKI-1
SK-MEL-2 = system: SK-MEL-2
SN12C = system: SN12C
NCI-H460 = system: NCI-H460
SF-539 = system: SF-539
NCI-H23 = system: NCI-H23
KM12 = system: KM12
SNB-78 = system: SNB-78
786-0 = system: 786-0
UO-31 = system: UO-31
SR = system: SR
K562 = system: K562
HCT-15 = system: HCT-15
SK-MEL-28 = system: SK-MEL-28
SF-295 = system: SF-295
DMS-273 = system: DMS-273
HOP-92 = system: HOP-92
NCI-H226 = system: NCI-H226
RPMI-8226 = system: RPMI-8226
ACHN = system: ACHN
UACC-62 = system: UACC-62
SNB-75 = system: SNB-75
OVCAR-8 = system: OVCAR-8
SF-268 = system: SF-268

Compound: O=C(Nc1ccc(C(F)(F)F)cc1[N+](=O)[O-])C(=O)C1NC(=S)NC1=O (stereo not drawn)
- GI50 (TK-10): > 100 µM (inactive)
- GI50 (RXF 393): > 100 µM (inactive)
- GI50 (OVCAR-5): > 100 µM (inactive)
- GI50 (DMS-114): > 100 µM (inactive)
- GI50 (MOLT-4): > 100 µM (inactive)
- GI50 (SW-620): > 100 µM (inactive)
- GI50 (U-251): > 100 µM (inactive)
- GI50 (COLO 205): 13.5 µM (inactive)
- GI50 (EKVX): 4.86 µM (inactive)
- GI50 (CCRF-CEM): > 100 µM (inactive)
- GI50 (HCT-116): > 100 µM (inactive)
- GI50 (M19-MEL): > 100 µM (inactive)
- GI50 (OVCAR-3): > 100 µM (inactive)
- GI50 (UACC-257): > 100 µM (inactive)
- GI50 (SNB-19): > 100 µM (inactive)
- GI50 (SK-MEL-5): > 100 µM (inactive)
- GI50 (HOP-62): > 100 µM (inactive)
- GI50 (A498): 53 µM (inactive)
- GI50 (DLD-1): > 100 µM (inactive)
- GI50 (HL-60): > 100 µM (inactive)
- GI50 (IGROV-1): > 100 µM (inactive)
- GI50 (A549): > 100 µM (inactive)
- GI50 (RXF 631): 82.2 µM (inactive)
- GI50 (OVCAR-4): > 100 µM (inactive)
- GI50 (HT-29): > 100 µM (inactive)
- GI50 (Malme-3M): > 100 µM (inactive)
- GI50 (LOX IMVI): > 100 µM (inactive)
- GI50 (KM-20L2): > 100 µM (inactive)
- GI50 (LXFL 529): > 100 µM (inactive)
- GI50 (HCC 2998): > 100 µM (inactive)
- GI50 (SK-OV-3): > 100 µM (inactive)
- GI50 (NCI-H522): > 100 µM (inactive)
- GI50 (HOP-18): > 100 µM (inactive)
- GI50 (M14): > 100 µM (inactive)
- GI50 (CAKI-1): 54.1 µM (inactive)
- GI50 (SK-MEL-2): > 100 µM (inactive)
- GI50 (SN12C): 2.26 µM (inactive)
- GI50 (NCI-H460): > 100 µM (inactive)
- GI50 (SF-539): > 100 µM (inactive)
- GI50 (NCI-H23): > 100 µM (inactive)
- GI50 (KM12): > 100 µM (inactive)
- GI50 (SNB-78): > 100 µM (inactive)
- GI50 (786-0): > 100 µM (inactive)
- GI50 (UO-31): > 100 µM (inactive)
- GI50 (SR): > 100 µM (inactive)
- GI50 (K562): > 100 µM (inactive)
- GI50 (HCT-15): > 100 µM
- GI50 (SK-MEL-28): > 100 µM (inactive)
- GI50 (SF-295): > 100 µM (inactive)
- GI50 (DMS-273): > 100 µM (inactive)
- GI50 (HOP-92): 43.7 µM (inactive)
- GI50 (NCI-H226): 11 µM (inactive)
- GI50 (RPMI-8226): > 100 µM (inactive)
- GI50 (ACHN): > 100 µM (inactive)
- GI50 (UACC-62): > 100 µM (inactive)
- GI50 (SNB-75): 26.6 µM (inactive)
- GI50 (OVCAR-8): > 100 µM (inactive)
- GI50 (SF-268): > 100 µM (inactive)

Compound: COC1C2C=CC(C2)[C@H]1[N+](=O)[O-] (stereo partly drawn)
- GI50 (TK-10): > 100 µM (inactive)
- GI50 (RXF 393): > 100 µM (inactive)
- GI50 (OVCAR-5): > 100 µM (inactive)
- GI50 (DMS-114): > 100 µM (inactive)
- GI50 (MOLT-4): > 100 µM (inactive)
- GI50 (SW-620): 95.7 µM (inactive)
- GI50 (U-251): > 100 µM (inactive)
- GI50 (COLO 205): > 100 µM (inactive)
- GI50 (EKVX): > 100 µM (inactive)
- GI50 (CCRF-CEM): 74.1 µM (inactive)
- GI50 (HCT-116): > 100 µM (inactive)
- GI50 (M19-MEL): > 100 µM (inactive)
- GI50 (OVCAR-3): > 100 µM (inactive)
- GI50 (UACC-257): > 100 µM (inactive)
- GI50 (SNB-19): > 100 µM (inactive)
- GI50 (SK-MEL-5): > 100 µM (inactive)
- GI50 (HOP-62): > 100 µM (inactive)
- GI50 (A498): > 100 µM (inactive)
- GI50 (DLD-1): > 100 µM (inactive)
- GI50 (HL-60): 28.8 µM (inactive)
- GI50 (IGROV-1): > 100 µM (inactive)
- GI50 (A549): > 100 µM (inactive)
- GI50 (RXF 631): > 100 µM (inactive)
- GI50 (OVCAR-4): > 100 µM (inactive)
- GI50 (HT-29): > 100 µM (inactive)
- GI50 (Malme-3M): > 100 µM (inactive)
- GI50 (LOX IMVI): > 100 µM (inactive)
- GI50 (KM-20L2): > 100 µM (inactive)
- GI50 (LXFL 529): > 100 µM (inactive)
- GI50 (HCC 2998): > 100 µM (inactive)
- GI50 (SK-OV-3): > 100 µM (inactive)
- GI50 (NCI-H522): > 100 µM (inactive)
- GI50 (M14): > 100 µM (inactive)
- GI50 (CAKI-1): > 100 µM (inactive)
- GI50 (SK-MEL-2): > 100 µM (inactive)
- GI50 (SN12C): > 100 µM (inactive)
- GI50 (NCI-H460): > 100 µM (inactive)
- GI50 (SF-539): > 100 µM (inactive)
- GI50 (NCI-H23): > 100 µM (inactive)
- GI50 (KM12): > 100 µM (inactive)
- GI50 (SNB-78): > 100 µM (inactive)
- GI50 (786-0): > 100 µM (inactive)
- GI50 (UO-31): > 100 µM (inactive)
- GI50 (SR): > 100 µM (inactive)
- GI50 (K562): > 100 µM (inactive)
- GI50 (HCT-15): > 100 µM
- GI50 (SF-295): > 100 µM (inactive)
- GI50 (DMS-273): > 100 µM (inactive)
- GI50 (HOP-92): > 100 µM (inactive)
- GI50 (NCI-H226): > 100 µM (inactive)
- GI50 (ACHN): > 100 µM (inactive)
- GI50 (UACC-62): > 100 µM (inactive)
- GI50 (SNB-75): > 100 µM (inactive)
- GI50 (OVCAR-8): 56.8 µM (inactive)
- GI50 (SF-268): > 100 µM (inactive)
